Assay results as given in US8835440B2, “Cyclic pyrimidin-4-carboxamides as CCR2 receptor antagonists for treatment of inflammation, asthma and COPD” (Boehringer Ingelheim International GmbH, priority 2008, dated 2014).
pKi: −log10 of the molar value.

Molecular target: T1, CCR2 (Homo sapiens, UniProt P41597)
T1 construct: Membranes were prepared from THP-1 cells; endogenous in cells; host or cells: THP-1 cells (membrane preparation)
T1 sequence (P41597 1-360 isoform P41597-2): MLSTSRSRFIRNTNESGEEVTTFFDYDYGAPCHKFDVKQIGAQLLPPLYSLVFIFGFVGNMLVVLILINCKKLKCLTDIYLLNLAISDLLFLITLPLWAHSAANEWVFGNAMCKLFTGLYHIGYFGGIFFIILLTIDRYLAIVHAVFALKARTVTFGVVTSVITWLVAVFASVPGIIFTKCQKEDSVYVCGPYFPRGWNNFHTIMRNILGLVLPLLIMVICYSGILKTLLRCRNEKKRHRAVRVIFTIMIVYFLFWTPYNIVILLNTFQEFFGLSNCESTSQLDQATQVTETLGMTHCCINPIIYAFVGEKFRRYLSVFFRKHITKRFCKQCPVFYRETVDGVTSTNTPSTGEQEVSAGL
Test: CCR2 receptor membrane binding assay ([125I]MCP-1, THP-1 cell membranes, SPA beads)
Settings: for pKi: dissociation constant hKi, [125I]MCP-1 binding to THP-1 membranes; for remaining activity at 10 µM: @ 10 μM test compound, THP-1 membranes, read-out: CCR2 % ctrl @ 10 μM
Summary of the method: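 Human THP-1 monocytic cell membranes, pre-coupled to WGA-PVT SPA beads, were incubated with compound and [125I]MCP-1 (ca. 25000 cpm) in 25 mM HEPES pH 7.2, 5 mM MgCl2, 0.5 mM CaCl2, 0.2% BSA, at 1% DMSO final. Bound radioactivity was counted after 8 h, and Ki was obtained by iterative mass-action fitting.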

COc1nc(NCC2CCCC(c3ccccc3)C2)c(C)c(C(=O)N2CCC(N3CCC(N(C)S(C)(=O)=O)CC3)CC2)n1 (stereo not drawn) [Example 159a]
pKi: 8.00

CCN(C1CCN(C2CCN(C(=O)c3ncnc(NCc4ccc(C(C)(C)C)cc4)c3C)CC2)CC1)S(C)(=O)=O [Example 206]
remaining activity at 10 µM: 3% | pKi: 7.36

Cc1c(NCc2ccc(C(C)(C)C)cc2)ncnc1C(=O)N1CCC(N2CCC[C@H]2CC(=O)N(C)C)CC1 [Example 217]
remaining activity at 10 µM: 54% | pKi: 5.36

Cc1ccc(CNc2ncnc(C(=O)N3CCC(N4CCC(O)CC4)CC3)c2C)cc1Cl [Example 30]
remaining activity at 10 µM: 18% | pKi: 6.35

Cc1c(NCc2ccc(C(F)(F)F)c(F)c2)ncnc1C(=O)N1CCC(N2CCC(O)CC2)CC1 [Example 10]
remaining activity at 10 µM: 27% | pKi: 6.19

Cc1c(NCCc2ccc(Cl)c(Cl)c2)ncnc1C(=O)N1CCC(N2CCC[C@H](O)C2)CC1 [Example 229]
remaining activity at 10 µM: 39% | pKi: 5.95

CO[C@@H]1COCC[C@H]1NC1CCN(C(=O)c2ncnc(NCc3ccc(C(C)(C)C)cc3)c2C)CC1 [Example 228gn]
pKi: 6.48

Cc1c(NCc2ccc(C(C)(C)C)cc2)ncnc1C(=O)N1CCC(NC2CCOCC2F)CC1 (stereo not drawn) [Example 228d]
remaining activity at 10 µM: 1% | pKi: 7.04

Cc1c(NCc2ccc(Cl)cc2)ncnc1C(=O)N1CCC(N2CCC(N(C)S(C)(=O)=O)CC2)CC1 [Example 49]
remaining activity at 10 µM: 7% | pKi: 7.01

Cc1c(NCCc2ccc(Cl)c(Cl)c2)ncnc1C(=O)N1CCC(N2CCN(C(=O)C(C)C)CC2)CC1 [Example 284]
remaining activity at 10 µM: 42% | pKi: 5.82

Cc1c(NC[C@H]2CC[C@H](c3cccc(C(F)(F)F)c3)O2)ncnc1C(=O)N1CCC(N2CCC(N(C)S(C)(=O)=O)CC2)CC1 [Example 159ha]
pKi: 7.57

CNC(=O)[C@@H]1CCN(C2CCN(C(=O)c3ncnc(NCc4ccc(C(F)(F)F)c(Cl)c4)c3C)CC2)C1 [Example 77]
remaining activity at 10 µM: 27% | pKi: 6.19

Cc1nc(NC[C@H]2CC[C@H](c3cccc(C(F)(F)F)c3)O2)c(C)c(C(=O)N2CCC(N3CCC(N(C)S(C)(=O)=O)CC3)CC2)n1 [Example 159ga]
pKi: 7.55

Cc1ccc(CNc2ncnc(C(=O)N3CCC(N4CCC(O)CC4)CC3)c2C)cc1C [Example 31]
remaining activity at 10 µM: 28% | pKi: 6.10

Cc1cc(CNc2ncnc(C(=O)N3CCC(N4CCCCC4)CC3)c2C)ccc1F [Example 135]
remaining activity at 10 µM: 19% | pKi: 6.05

CNC(=O)C1(C)CCN(C2CCN(C(=O)c3ncnc(NCc4ccc(C(C)(C)C)cc4)c3C)CC2)CC1 [Example 224]
remaining activity at 10 µM: 35% | pKi: 5.91

Cc1c(NCc2ccc(C(C)(C)C)cc2)ncnc1C(=O)N1CCC(N2CCc3ncc(C(F)(F)F)cc3C2)CC1 [Example 228gg]
pKi: 5.99

Cc1c(NCc2ccc(Cl)c(Cl)c2)ncnc1C(=O)N1CCC(N(C)CC#N)CC1 [Example 182]
remaining activity at 10 µM: 53% | pKi: 5.52

Cc1c(NCC2CCC(c3cccc(C(F)(F)F)c3)O2)ncnc1C(=O)N1CCC(N2CCC(N(C)S(C)(=O)=O)CC2)CC1 (stereo not drawn) [Example 159pa]
pKi: 7.49

Cc1c(NCc2ccc(C(C)(C)C)cc2)ncnc1C(=O)N1CCC(N2CCC(c3ccccc3)C2)CC1 (stereo not drawn) [Example 210]
remaining activity at 10 µM: 0% | pKi: 7.08

CNC(=O)[C@@H]1CCN(C2CCN(C(=O)c3ncnc(NCc4ccc(Cl)c(F)c4)c3C)CC2)C1 [Example 78]
remaining activity at 10 µM: 28% | pKi: 6.13

Cc1c(NCC2(c3ccccc3)CCCCC2)ncnc1C(=O)N1CCC(N2CCC(N(C)S(C)(=O)=O)CC2)CC1 [Example 159t]
pKi: 5.92

Cc1c(NCC2COc3ccccc3C2)ncnc1C(=O)N1CCC(N2CCOCC2)CC1 (stereo not drawn) [Example 50]
remaining activity at 10 µM: 22% | pKi: 6.03

Cc1c(NCCc2ccc(Cl)c(Cl)c2)ncnc1C(=O)N1CCC(N2CCC(O)C2)CC1 (stereo not drawn) [Example 241]
remaining activity at 10 µM: 21% | pKi: 6.28

Cc1c(NCCOc2ccccc2)ncnc1C(=O)N1CCC(N2CCC(O)CC2)CC1 [Example 16]
remaining activity at 10 µM: 40% | pKi: 5.72

Cc1c(NCc2coc(-c3ccccc3)c2)ncnc1C(=O)N1CCC(N2CCC(N(C)S(C)(=O)=O)CC2)CC1 [Example 159mb]
pKi: 7.85

Cc1c(NC[C@@H]2C[C@H]2c2ccccc2)ncnc1C(=O)N1CCC(N2CCC(N(C)S(C)(=O)=O)CC2)CC1 [Example 152]
remaining activity at 10 µM: 7% | pKi: 7.36

CNC(=O)C1CCN(C2CCN(C(=O)c3ncnc(OCc4ccc(C(C)(C)C)cc4)c3C)CC2)CC1 [Example 300]
remaining activity at 10 µM: 8% | pKi: 6.87

Cc1c(NCc2ccc(C(C)(C)C)cc2)ncnc1C(=O)N1CCC(NC2CCOCC2n2ncnn2)CC1 (stereo not drawn) [Example 228gp]
pKi: 5.87

Cc1c(NCc2ccc(C(C)(C)C)cc2)ncnc1C(=O)N1CCC(N2CCC(O)CC2)CC1 [Example 7]
remaining activity at 10 µM: 16% | pKi: 6.51

Cc1c(NCC2CCCN(c3ccc(C(F)(F)F)cc3)C2)ncnc1C(=O)N1CCC(N2CCC(N(C)S(C)(=O)=O)CC2)CC1 (stereo not drawn) [Example 159w]
pKi: 8.05

Cc1c(OCc2ccc(C(C)(C)C)cc2)ncnc1C(=O)N1CCC(N2CCC(NS(C)(=O)=O)CC2)CC1 [Example 299]
remaining activity at 10 µM: 6% | pKi: 7.15

Cc1c(NCc2ccc(C(C)(C)C)cc2)ncnc1C(=O)N1CCC(N[C@@H]2CCCN(S(C)(=O)=O)C2)CC1 [Example 228gd]
pKi: 5.96

COC1COCCC1N(C)C1CCN(C(=O)c2ncnc(NCC3CCC[C@@H](c4ccccc4)C3)c2C)CC1 (stereo partly drawn) [Example 228h]
remaining activity at 10 µM: 0% | pKi: 8.30

Cc1c(CCc2ccc(C(C)(C)C)cc2)ncnc1C(=O)N1CCC(N2CCC(N(C)S(C)(=O)=O)CC2)CC1 [Example 272]
remaining activity at 10 µM: 8% | pKi: 6.81

Cc1c(NCC2CCC(C(C)C)CC2)ncnc1C(=O)N1CCC(N2CCC(N(C)S(C)(=O)=O)CC2)CC1 (stereo not drawn) [Example 159f]
pKi: 7.85

CO[C@@H]1CN(C2CCN(C(=O)c3ncnc(NCc4ccc(Cl)c(Cl)c4)c3C)CC2)CC[C@H]1NS(C)(=O)=O [Example 191]
remaining activity at 10 µM: 20% | pKi: 6.28

Cc1c(NCc2ccc(Cl)c(Cl)c2)ncnc1C(=O)N1CCC(N2CC[C@H](NS(C)(=O)=O)C2)CC1 [Example 258]
remaining activity at 10 µM: 4% | pKi: 7.19

CO[C@@H]1COCC[C@@H]1NC1CCN(C(=O)c2ncnc(NC[C@H]3C[C@@H](c4ccccc4)C3)c2C)CC1 [Example 275dg]
pKi: 7.92

Cc1cccc(C2CCC(CNc3nc(C)nc(C(=O)N4CCC(N5CCC(N(C)S(C)(=O)=O)CC5)CC4)c3C)O2)c1 (stereo not drawn) [Example 159sa]
pKi: 7.66

O=C(c1ncnc(NCc2cccc(-c3ccccc3)c2)c1Br)N1CCC(N2CCOCC2)CC1 [Example 277]
remaining activity at 10 µM: 34% | pKi: 5.86

Cc1c(NCCc2cccc(C(F)(F)F)c2)ncnc1C(=O)N1CCC(N2CCC(O)CC2)CC1 [Example 11]
remaining activity at 10 µM: 38% | pKi: 5.77

Cc1c(NCc2ccc(Cl)c(Cl)c2)ncnc1C(=O)N1CCC(N2CCC(C(F)(F)F)CC2)CC1 [Example 184]
remaining activity at 10 µM: 30% | pKi: 6.04

Cc1c(NCCc2ccc(C(C)(C)C)cc2)ncnc1C(=O)N1CCC(N2CCC(O)CC2)CC1 [Example 112]
remaining activity at 10 µM: 21% | pKi: 6.42

Cc1c(NCC2CCN(c3ccccc3)C2)ncnc1C(=O)N1CCC(N2CCC(O)CC2)CC1 (stereo not drawn) [Example 20]
remaining activity at 10 µM: 24% | pKi: 6.52

Cc1nc(NC[C@@H]2CCC[C@H](c3ccc(C)o3)C2)c(C)c(C(=O)N2CCC(N3CCC(N(C)S(C)(=O)=O)CC3)CC2)n1 [Example 159cc]
pKi: 8.00

Cc1c(NCC2COc3ccccc3C2)ncnc1C(=O)N1CCC(N2CCC(O)CC2)CC1 (stereo not drawn) [Example 19]
remaining activity at 10 µM: 40% | pKi: 6.57

Cc1c(NCC2CCN(c3ccccc3)C2)ncnc1C(=O)N1CCC(N2CCC(NS(C)(=O)=O)CC2)CC1 (stereo not drawn) [Example 74]
remaining activity at 10 µM: 2% | pKi: 7.15

CNC(=O)C1CCN(C2CCN(C(=O)c3ncnc(NC[C@H]4CCC[C@@H](c5ccccc5)C4)c3C)CC2)CC1 [Example 159p]
pKi: 8.15

Cc1c(NCC2Cc3ccccc3O2)ncnc1C(=O)N1CCC(N2CCC(O)CC2)CC1 (stereo not drawn) [Example 27]
remaining activity at 10 µM: 25% | pKi: 6.21

Cc1c(NCCc2ccc(F)c(F)c2)ncnc1C(=O)N1CCC(N2CCC(O)CC2)CC1 [Example 115]
remaining activity at 10 µM: 33% | pKi: 6.07

Cc1c(NCC2CC(c3ccccc3)CO2)ncnc1C(=O)N1CCC(N2CCC(N(C)S(C)(=O)=O)CC2)CC1 (stereo not drawn) [Example 159eb]
pKi: 7.14

CO[C@H]1COCC[C@H]1NC1CCN(C(=O)c2ncnc(NC[C@H]3CCC[C@@H](c4ccccc4)C3)c2C)CC1 [Example 275dh]
pKi: 8.52

Cc1c(NCCc2ccc(Cl)c(Cl)c2)ncnc1C(=O)N1CCC(N2CCC(C(N)=O)CC2)CC1 [Example 172]
remaining activity at 10 µM: 28% | pKi: 6.13

CO[C@@H]1COCC[C@@H]1NC1CCN(C(=O)c2nc(C)nc(NC[C@H]3C[C@@H](c4ccccc4)C3)c2C)CC1 [Example 275dc]
pKi: 7.96

Cc1c(Oc2ccc(Cl)cc2)ncnc1C(=O)N1CCC(N2CCC(N(C)S(C)(=O)=O)CC2)CC1 [Example 290]
remaining activity at 10 µM: 28% | pKi: 5.80
